Values of other authors in PMC10288581 (Frontiers in Pharmacology, 2023).
Where two headings read alike, the source gives them in different places.

Conditions: cited from earlier work
[1] = increased, exact percentage not reported, ref Bouatou et al. (2014)
[2] = ref Kakuda et al., (2013), Calcagno et al., (2014)
[3] = increased, exact percentage not reported, ref Motta et al. (2016)
[4] = increased, exact percentage not reported, ref Yasu et al. (2016)
[5] = increased, exact percentage not reported, ref Heinz et al. (2007)

CC[C@H]1OC(=O)[C@H](C)[C@@H](O[C@H]2C[C@@](C)(OC)[C@@H](O)[C@H](C)O2)[C@H](C)[C@@H](O[C@@H]2O[C@H](C)C[C@H](N(C)C)[C@H]2O)[C@](C)(O)C[C@@H](C)CN(C)[C@H](C)[C@@H](O)[C@]1(C)O [Azithromycin]
↑AUC of voriconazole (increase by effector drug) (ref Purkins et al. (2003d)): *↑8% | ↑Cmax of voriconazole (increase by effector drug) (ref Purkins et al. (2003d)): *↑18%

CN/C(=N/CCSCc1nc[nH]c1C)NC#N [Cimetidine]
↑AUC of voriconazole (increase by effector drug) (ref Purkins et al. (2003b)): *↑22.5% | ↑Cmax of voriconazole (increase by effector drug) (ref Purkins et al. (2003b)): *↑18.5%

CC[C@H]1OC(=O)[C@H](C)[C@@H](O[C@H]2C[C@@](C)(OC)[C@@H](O)[C@H](C)O2)[C@H](C)[C@@H](O[C@@H]2O[C@H](C)C[C@H](N(C)C)[C@H]2O)[C@](C)(O)C[C@@H](C)C(=O)[C@H](C)[C@@H](O)[C@]1(C)O [Erythromycin]
↑AUC of voriconazole (increase by effector drug) (ref Purkins et al. (2003d)): *↑1% | ↑Cmax of voriconazole (increase by effector drug) (ref Purkins et al. (2003d)): *↑8%

COc1ccc2nc([S@@+]([O-])Cc3ncc(C)c(OC)c3C)[nH]c2c1 [Esomeprazole]
↑AUC of voriconazole (increase by effector drug) [1]: ↑ ^NR* | ↑Cmax of voriconazole (increase by effector drug) [1]: ↑ ^NR*

Cc1cc(C#N)cc(C)c1Oc1nc(Nc2ccc(C#N)cc2)nc(N)c1Br [Etravirine]
↑AUC of voriconazole (increase by effector drug) [2]: *↑14% | ↑Cmax of voriconazole (increase by effector drug) [2]: *↑23%

O=C(CCCN1CCC(O)(c2ccc(Cl)cc2)CC1)c1ccc(F)cc1 [Haloperidol]
↑AUC of voriconazole (increase by effector drug) [3]: ↑ ^NR* | ↑Cmax of voriconazole (increase by effector drug) [3]: ↑ ^NR*

Cc1c(OCC(F)(F)F)ccnc1C[S+]([O-])c1nc2ccccc2[nH]1 (centres unmarked) [Lanoprazole]
↑AUC of voriconazole (increase by effector drug) [4]: ↑ ^NR* | ↑Cmax of voriconazole (increase by effector drug) [4]: ↑ ^NR*

COc1ccc2[nH]c([S+]([O-])Cc3ncc(C)c(OC)c3C)nc2c1 (centres unmarked) [Omeprazole]
↑AUC of voriconazole (increase by effector drug) (ref Wood et al. (2003)): *↑41% | ↑Cmax of voriconazole (increase by effector drug) (ref Wood et al. (2003)): *↑15%

COc1ccnc(C[S+]([O-])c2nc3ccc(OC(F)F)cc3[nH]2)c1OC (centres unmarked) [Pantoprazole]
↑AUC of voriconazole (increase by effector drug) [5]: ↑ ^NR* | ↑Cmax of voriconazole (increase by effector drug) [5]: ↑ ^NR*

CNC(=C[N+](=O)[O-])NCCSCc1ccc(CN(C)C)o1 [Ranitidine]
↑AUC of voriconazole (increase by effector drug) (ref Purkins et al. (2003b)): *↑4% | ↑Cmax of voriconazole (increase by effector drug) (ref Purkins et al. (2003b)): *↑3.5%
